One may read the Ki as a dissociation constant, usually derived from enzyme kinetics or from competition with a known ligand.

This assay deals with T1, hCRTH2 (Homo sapiens, UniProt Q9Y5Y4).
T1 construct: expressed in transfected cells; host or cells: HEK (human embryonic kidney) cells expressing hCRTH2; membrane preparation
T1 sequence (Q9Y5Y4 1-395): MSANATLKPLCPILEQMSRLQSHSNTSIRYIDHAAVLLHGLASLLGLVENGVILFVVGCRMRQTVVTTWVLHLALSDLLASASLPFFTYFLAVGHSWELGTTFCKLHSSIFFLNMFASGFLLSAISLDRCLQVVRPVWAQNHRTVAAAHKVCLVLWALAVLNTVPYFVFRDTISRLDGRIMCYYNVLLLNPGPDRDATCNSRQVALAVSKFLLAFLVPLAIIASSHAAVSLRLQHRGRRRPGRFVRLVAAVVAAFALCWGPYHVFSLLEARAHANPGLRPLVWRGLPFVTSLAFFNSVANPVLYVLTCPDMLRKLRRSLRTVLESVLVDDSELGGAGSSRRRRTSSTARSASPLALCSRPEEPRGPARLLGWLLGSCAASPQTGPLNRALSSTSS
Briefly: Radioligand binding assay ([3H]PGD2 competition, HEK-hCRTH2 membranes). An outline of the steps:
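Filter-bound radioactivity was counted by scintillation after 60 min incubations at room temperature. Membranes (8-20 μg) from HEK cells expressing hCRTH2 competed test ligands against 3.0 nM [3H]PGD2 in Tris-HCl pH 7.4 buffer with EDTA and 2 mM MnCl2; 10 μM PGD2 set non-specific binding.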

[1] abbreviates: [3H]PGD2 binding, rated A-E (Table A).

Turning to `O=C(O)CCCCc1nc2cc(C(=O)N[C@H]3CCS(=O)(=O)c4ccccc43)ccc2nc1-c1ccc(F)cc1` [compound 709, (S)-5-(7-((1,1-dioxidothiochroman-4-yl)carbamoyl)-3-(4-fluorophenyl)quinoxalin-2-yl)pentanoic acid], the Ki was 18.4 nM ([3H]PGD2 binding, values in text) and 2.1 to 20 nM ([3H]PGD2 competition, Table B).

Where the note is “[3H]PGD2 competition, Table B”, `O=C(O)CCCCc1nc2cc(C(=O)N3CCN(Cc4ccccc4)CC3)ccc2nc1-c1ccccc1` [compound 302, 5-(7-(4-benzylpiperazine-1-carbonyl)-3-phenylquinoxalin-2-yl)pentanoic acid] came in with an inhibitory constant (Ki) of 2.1 to 20 nM.

Take `O=C(O)CCCCc1nc2cc(C(=O)N3CCN(c4ccc(F)cc4)CC3)ccc2nc1-c1ccc(Cl)cc1` [compound 189, 3-(4-chlorophenyl)-7-[[4-(4-fluorophenyl)-1-piperazinyl]carbonyl]-2-quinoxalinepentanoic acid]: the Ki under setting [1] was 0.1 to 2 nM.

Consider `Cc1cccc(N2CCN(C(=O)c3ccc4nc(-c5ccc(F)cc5)c(CCCCC(=O)O)nc4c3)CC2)c1` [compound 366, 5-(3-(4-fluorophenyl)-7-(4-(m-tolyl)piperazine-1-carbonyl)quinoxalin-2-yl)pentanoic acid], for which, where the note is “[3H]PGD2 competition, Table B”, the Ki was 2.1 to 20 nM.

Consider `CC(CCCc1nc2cc(C(=O)N3CCN(c4ccccc4)CC3)ccc2nc1-c1ccc(F)cc1)C(=O)O` (stereo not drawn) [compound 206, 3-(4-fluorophenyl)-alpha-methyl-7-[(4-phenyl-1-piperazinyl)carbonyl]-2-quinoxalinepentanoic acid], for which, under setting [1], the Ki lay within 2.1 to 20 nM.

The molecule `O=C(O)CCCCc1nc2cc(C(=O)N3CCN(c4ccc(Cl)cc4)CC3)ccc2nc1-c1ccc(Cl)cc1` [compound 191, 3-(4-chlorophenyl)-7-[[4-(4-chlorophenyl)-1-piperazinyl]carbonyl]-2-quinoxalinepentanoic acid] yielded a Ki under setting [1] of 0.1 to 2 nM.

For `O=C(O)CCCCc1nc2cc(C(=O)N3CC[C@H](c4ccc(F)cc4)C3)ccc2nc1-c1ccc(Cl)cc1` [compound 577, (R)-5-(3-(4-chlorophenyl)-7-(3-(4-fluorophenyl)pyrrolidine-1-carbonyl)quinoxalin-2-yl)pentanoic acid], the Ki ([3H]PGD2 competition, Table B) was 0.1 to 2 nM.

For `CC(C)(NC(=O)c1ccc2nc(-c3ccccc3)c(CCCCC(=O)O)nc2c1)c1ccccc1` [15X, 5-{7-[(1-methyl-1-phenylethyl)carbamoyl]-3-phenylquinoxalin-2-yl}pentanoic acid], the inhibition constant (Ki) under setting [1] was in the range of 0.1 to 2 nM.

Under “[3H]PGD2 competition, Table B”, `O=C(O)CCCCc1nc2cc(C(=O)N3CCC4(CC3)NC(=O)c3ccccc3O4)ccc2nc1-c1ccc(Cl)cc1` [compound 344, 5-(3-(4-chlorophenyl)-7-(4-oxo-3,4-dihydrospiro[benzo[e][1,3]oxazine-2,4′-piperidin]-1′-ylcarbonyl)quinoxalin-2-yl)pentanoic acid] had an inhibition constant (Ki) of 2.1 to 20 nM.

`O=C(O)CCCCc1nc2cc(C(=O)N[C@@H]3CCCCc4ccccc43)ccc2nc1-c1ccc(Cl)cc1` [compound 570, (R)-5-(3-(4-chlorophenyl)-7-((6,7,8,9-tetrahydro-5H-benzo[7]annulen-5-yl)carbamoyl)quinoxalin-2-yl)pentanoic acid]: the Ki ([3H]PGD2 competition, Table B) fell in the range of 2.1 to 20 nM.

As for `N#Cc1ccc(C2CN(C(=O)c3ccc4nc(-c5ccc(Cl)cc5)c(CC5CCC(C(=O)O)C5)nc4c3)C2)cc1` (centres unmarked) [compound 400, 3-((3-(4-chlorophenyl)-7-(3-(4-cyanophenyl)azetidine-1-carbonyl)quinoxalin-2-yl)methyl)cyclopentane-carboxylic acid], the inhibition constant (Ki) ([3H]PGD2 competition, Table B) was in the range of 2.1 to 20 nM.

With `O=C(O)CCCc1nc2cc(C(=O)NCc3cccc(Cl)c3)ccc2nc1-c1ccccc1` [compound 23, 7-[[[(3-chlorophenyl)methyl]amino]carbonyl]-3-phenyl-2-quinoxalinebutanoic acid], the inhibitory constant (Ki) under setting [1] lay in the range of 20.1 to 200 nM.

As for `C[C@@H](NC(=O)c1ccc2nc(-c3ccc(Cl)cc3)c(CCCCC(=O)O)nc2c1)c1cccc(F)c1` [compound 178, 3-(4-chlorophenyl)-7-[[[1(R)-(3-fluorophenyl)ethyl]amino]carbonyl]-2-quinoxalinepentanoic acid], under setting [1], the Ki is 0.1 to 2 nM.
